Measurements from PubChem BioAssay AID1963866 (Molecular Pharmacology Branch, DTP, NCI, 2024).

System: PDC KRAS tumor spheroids with HUVEC/MSC, viability
Experiment: Anticancer human tumor 349418-098-R-PDC patient-derived lung adenocarcinoma cell line growth inhibition [KRAS2]
Conditions: for IC50: curve of first compound; for viability, T/C: stronger effect = lower value
Procedure, shortened: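 Combination screen of spheroid viability in tumor-cell co-cultures with endothelial (HUVEC) and mesenchymal stem cell stroma. Each agent was tested in half-log dilutions, topping at clinical Cmax or at 10 microM without a known Cmax.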

[1] = second compound 0.1 µM, first compound 0.0316 µM
[2] = second compound 0.1 µM, first compound 0.1 µM
[3] = second compound 0.1 µM, first compound 0.316 µM
[4] = second compound 0.1 µM, first compound 1 µM
[5] = second compound 0.1 µM, first compound 3.16 µM
[6] = second compound 0.316 µM, first compound 0.0316 µM
[7] = second compound 0.316 µM, first compound 0.1 µM
[8] = second compound 0.316 µM, first compound 0.316 µM
[9] = second compound 0.316 µM, first compound 1 µM
[10] = second compound 0.316 µM, first compound 3.16 µM
[11] = second compound 1 µM, first compound 0.0316 µM
[12] = second compound 1 µM, first compound 0.1 µM
[13] = second compound 1 µM, first compound 0.316 µM
[14] = second compound 1 µM, first compound 1 µM
[15] = second compound 1 µM, first compound 3.16 µM
[16] = second compound 3.16 µM, first compound 0.0316 µM
[17] = second compound 3.16 µM, first compound 0.1 µM
[18] = second compound 3.16 µM, first compound 0.316 µM
[19] = second compound 3.16 µM, first compound 1 µM
[20] = second compound 3.16 µM, first compound 3.16 µM
[21] = second compound 10 µM, first compound 0.0316 µM
[22] = second compound 10 µM, first compound 0.1 µM
[23] = second compound 10 µM, first compound 0.316 µM
[24] = second compound 10 µM, first compound 1 µM
[25] = second compound 10 µM, first compound 3.16 µM
[26] = second compound 0.1 µM, first compound 10 µM
[27] = second compound 0.316 µM, first compound 10 µM
[28] = second compound 1 µM, first compound 10 µM
[29] = second compound 3.16 µM, first compound 10 µM
[30] = second compound 10 µM, first compound 10 µM
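Further: spheroids exposed to compounds for seven days before readout.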

Structure (SMILES) | IC50 (second compound 0.1 µM) | IC50 (second compound 0.316 µM) | IC50 (second compound 1 µM) | IC50 (second compound 3.16 µM) | IC50 (second compound 10 µM) | viability, T/C [1] | viability, T/C [2] | viability, T/C [3] | viability, T/C [4] | viability, T/C [5] | viability, T/C [6] | viability, T/C [7] | viability, T/C [8] | viability, T/C [9] | viability, T/C [10] | viability, T/C [11] | viability, T/C [12] | viability, T/C [13] | viability, T/C [14] | viability, T/C [15] | other results
CC1COCCN1c1cc(-c2ccnn2C)c2ccnc(-c3ccn[nH]3)c2n1 (stereo not given) + COc1cc2nc(C)nc(NC(C)c3cc(N)cc(C(F)(F)F)c3)c2cc1OC1CCOC1 | < 10 nM | 43.8 nM | 48.5 nM | 42.7 nM | < 10 nM | 8.3% | 5.7% | 5.49% | 6% | 5.72% | 65.5% | 10.9% | 6.49% | 5.47% | 7.16% | 71.2% | 13.9% | 11.7% | 7.84% | 7.72% | viability, T/C (second compound 0.1 µM, first compound 0.01 µM): 5.36%; viability, T/C (second compound 0.316 µM, first compound 0.01 µM): 170%; viability, T/C (second compound 1 µM, first compound 0.01 µM): 167%; viability, T/C (second compound 3.16 µM, first compound 0.01 µM): 146%; viability, T/C [16]: 63.1%; viability, T/C [17]: 12.8%; viability, T/C [18]: 7.88%; viability, T/C [19]: 6.55%; viability, T/C [20]: 9.36%; viability, T/C (second compound 10 µM, first compound 0.01 µM): 36.6%; viability, T/C [21]: 14.1%; viability, T/C [22]: 8.5%; viability, T/C [23]: 6.86%; viability, T/C [24]: 7.4%; viability, T/C [25]: 5.53%
CC1OCC2(CCN(c3cnc(Sc4ccnc(N)c4Cl)c(N)n3)CC2)C1N (stereo not given) + COc1cc2nc(C)nc(NC(C)c3cc(N)cc(C(F)(F)F)c3)c2cc1OC1CCOC1 | > 10000 nM | > 10000 nM | > 10000 nM | > 10000 nM | < 31.6 nM | 101% | 77.2% | 54.4% | 97.6% | 85.6% | 114% | 80.8% | 54.5% | 95.3% | 95.3% | 124% | 99.3% | 67.7% | 72.1% | 80% | viability, T/C [26]: 62.7%; viability, T/C [27]: 77.8%; viability, T/C [28]: 74.1%; viability, T/C [16]: 93.8%; viability, T/C [17]: 77.7%; viability, T/C [18]: 46%; viability, T/C [19]: 62.6%; viability, T/C [20]: 86.7%; viability, T/C [29]: 57.1%; viability, T/C [21]: 42.8%; viability, T/C [22]: 29.8%; viability, T/C [23]: 18.9%; viability, T/C [24]: 24.1%; viability, T/C [25]: 35.3%; viability, T/C [30]: 19.2%
Cn1nccc1Nc1nccc(-c2cc3c(s2)C(C)(C)N(CCN2CCOCC2)C3=O)n1 + COc1cc2nc(C)nc(NC(C)c3cc(N)cc(C(F)(F)F)c3)c2cc1OC1CCOC1 | 52.4 nM | 37.4 nM | 36.3 nM | < 31.6 nM | < 31.6 nM | 71.1% | 22.4% | 12.5% | 7.65% | 6.07% | 55.6% | 19% | 12.2% | 6.27% | 6.54% | 53.4% | 24.2% | 8.8% | 7.31% | 5.44% | viability, T/C [26]: 4.14%; viability, T/C [27]: 4.93%; viability, T/C [28]: 4.32%; viability, T/C [16]: 41.8%; viability, T/C [17]: 19.1%; viability, T/C [18]: 7.42%; viability, T/C [19]: 5.91%; viability, T/C [20]: 4.66%; viability, T/C [29]: 4.79%; viability, T/C [21]: 15.1%; viability, T/C [22]: 7.62%; viability, T/C [23]: 4.31%; viability, T/C [24]: 3.93%; viability, T/C [25]: 2.92%; viability, T/C [30]: 2.13%
